Assay results from patent US6610694B1, “Condensed pyridazine compounds, their production and use” (Takeda Chemical Industries, Ltd., priority 1998, dated 2003).
Counter-ions that a name gives are not always drawn.

Tests used:
[1] = tested on: histamine-induced skin reactions in guinea pigs; assay: Effect on histamine-induced skin reactions in guinea pigs (skin vascular permeability); type: in vivo, guinea pig; conditions: oral 3 mg/kg
Protocol: Effect on Histamine-induced Skin Reactions in Guinea Pigs
Male Hartley guinea pigs weighing about 500 g were used. After the dorsal hair was shaved under ether anesthesia, 1 ml of a 2.5% pontamine sky blue solution was injected intravenously administered, and then 0.1 ml of histamine at 3 μg/ml was injected intradermally into 2 sites (left and right) in the back. Thirty minutes after the injection of histamine, the animals were killed by bleeding and the skin was removed. Two perpendicular diameters (mm) of each blue spot on the inside of the skin were measured and multiplied; the mean for the two products was taken as the microvascular permeability index. Test compounds were suspended in a 5% gum arabic solution and orally administered in a volume of 0.2 ml/100 g body weight 1 hour before histamine administration. Animals in the control group received the same volume of a 5% gum arabic solution. The suppression rate of the sample for the title reaction was calculated using Equation 1, and the results are given in Table 1.
Inhibition (%) of histamine-induced skin reactions=100×(1−vascular permeability index in the presence of drug/vascular permeability index in control group) Equation 1
In the same manner as Experimental Example 1a, the effects of various example compounds on histamine-induced skin reactions in guinea pigs were examined.

guinea pig eosinophils = assay: Suppression of LTB4-induced chemotactic reaction in guinea pig eosinophils; type: cell-based
Protocol: 1) Preparation of Guinea Pig Eosinophils
To male Hartley guinea pigs, 2 ml of equine serum (Bio-Whittaker, Inc.) was intraperitoneally administered once weekly for 8 consecutive weeks. At 48 hours after final administration, 75 ml of physiological saline was intraperitoneally injected, after which the saline was recovered and centrifuged at 400×g for 5 minutes. The resulting sediment was suspended in 5 ml of Percoll solution (density (d)=1.07) and layered on top of the multiple layers of different densities of Percoll solution (density(d)=1.112, 5 ml; d=1.095, 10 ml; d=1.090, 10 ml; d=1.085, 5 ml), followed by centrifugation at 1,000×g for 25 minutes (20° C.). The cell layer formed at the interface between densities 1.112 and 1.095 was collected. Erythrocytes present in the collected cell sediment were removed by hypotonic treatment (suspended in water for […]).
The cell sediment was washed 3 times with Hanks' solution containing 10 mM Hepes (Dojin Kagaku) (Hanks-Hepes) and suspended in a Hanks-Hepes solution containing 2% human serum albumin (Wako Pure Chemical Industry or Sigma) (Hanks-Hepes-HSA) to a final concentration of 5.56×10^6 cells/ml. Eosinophil purity was 90%, viability being over 98%.
2) Determination of Chemotactic Reaction Suppression
To a 24-well petri dish, which serves as a lower chamber, 600 μl of Hanks-Hepes-HSA solution containing LTB4 (final concentration 10^−8 M, Cascade Biochemical Ltd.), was transferred, followed by incubation at 37° C. for 30 minutes in a carbon dioxide incubator. Separately, 200 μl of eosinophil suspension (5×10^6 cells/ml), previously incubated at 37 C for 15 minutes, was added to Chemotaxicell (polycarbonate membrane, pore size 3 μm, thickness 10 μm), which serves as an upper chamber, after the upper chamber was attached to the 24-well petri dish. After 2 hours of reaction in the CO2 incubator, the Chemotaxicell was removed; 60 μl of a 2% (w/v) solution of EDTA in physiological saline was added to the liquid in the lower chamber. After the mixture was on cooled ice, the cells migrating into the lower chamber were counted using a blood cell counter [Coulter Counter (trade name)]. The test drug, dissolved in N,N-dimethyl formamide (DMF), was added to both the upper and lower chambers to a final concentration of 10^-5 M.
Chemotactic reaction suppression rate=[1−(number of migrating cells in the presence of drug/number of migrating cells in the absence of drug).]×100 Equation 2
Suppression rates of LTB4-induced chemotactic reaction by test substances (1×10^−5 M) were calculated using the above equation.
In the same manner as Experimental Example 2a, the percent suppression of LTB4-induced chemotactic reactions by various example compounds was calculated.

[2] = 1 hour before intradermal histamine, Table 1
[3] = LTB4 10^−8 M-induced chemotaxis, test substance 1×10^−5 M, Table 2
[4] = same manner as Experimental Example 1a, Table 3
[5] = LTB4-induced chemotaxis, same manner as Experimental Example 2a (1×10^−5 M), Table 4

**Q.** For O=C(O)c1nnc2ccc(NCCCN3CCC(OC(c4ccccc4)c4ccccc4)CC3)nn12 [Example 22a, 6-[3-[4-(Diphenylmethoxy)piperidino]propylamino][1,2,4]triazolo[4,3-b]pyridazine-3-carboxylic Acid], which “Suppression (%) of histamine-induced skin vascular permeability elevation, oral administration at 3 mg/kg” value (“Suppression (%)” for short) [1, 2] is on record?
**A.** 86%

**Q.** And the “Suppression rate (%)” value (guinea pig eosinophils; [3])?
**A.** 50%

**Q.** And the melting point?
**A.** 102 to 104 °C

**Q.** Which results are given for c1ccc(C(OC2CCN(CCCCCCNc3ccc4nncn4n3)CC2)c2ccccc2)cc1 [Example 10a, 6-[6-[4-(Diphenylmethoxy)piperidino]hexylamino][1,2,4]triazolo[4,3-b]pyridazine]?
**A.** Suppression (%) of histamine-induced skin vascular permeability elevation, oral administration at 3 mg/kg [1, 2]: 91%; Suppression rate (%) (guinea pig eosinophils; [3]): 60%; melting point: 124 to 127 °C

**Q.** For c1ccc(C(OC2CCN(CCCCCCOc3ccc4nncn4n3)CC2)c2ccccc2)cc1 [Example 7a, 6-[6-[4-(Diphenylmethoxy)piperidino]hexyloxy][1,2,4]triazolo[4,3-b]pyridazine Fumarate], which “Suppression (%)” value [1, 2] is on record?
**A.** 89%

**Q.** What about the “Suppression rate (%)” value (guinea pig eosinophils; [3]) of the same compound?
**A.** 36%

**Q.** With CCOC(=O)Cn1nc2ccc(NCCCN3CCC(OC(c4ccccc4)c4ccccc4)CC3)nn2c1=O [Example 7b, ethyl 2-[6-[3-[4-(Diphenylmethoxy)piperidino]propylamino]-3-oxo[1,2,4]triazolo[4,3-b]pyridazin-2(3H)-yl]acetate] as the compound, how does the “Suppression (%)” value [1, 4] read?
**A.** 89%

**Q.** And the “Suppression rate (%)” value (guinea pig eosinophils; [5])?
**A.** 26%

**Q.** What about the melting point of the same compound?
**A.** 137 to 139 °C

**Q.** For CCOC(=O)C(C)(C)n1nc2ccc(NCCCN3CCC(OC(c4ccccc4)c4ccccc4)CC3)nn2c1=O.Cl [Example 8b, Ethyl 2-[6-[3-[4-(Diphenylmethoxy)piperidino]propylamino]-3-oxo[1,2,4]triazolo[4,3-b]pyridazin-2(3H)-yl]-2-methylpropionate Hydrochloride], which “Suppression (%)” value [1, 4] is on record?
**A.** 74%

**Q.** And the “Suppression rate (%)” value (guinea pig eosinophils; [5])?
**A.** 57%

**Q.** What about the melting point of the same compound?
**A.** 162 °C
